Where “and” joins values, the source holds several entries; their conditions need not be identical. Equal entries are not always repeated. Where two headings read alike, the source gives them in different places.
Assays:
GPR55 = system: GPR55; set-up: method as in PubChem AID 2013; conditions: image-based HTS; ref PubChem AID 2013; read-out: IC50 value as GPR55 antagonist; cited from earlier work
[1] = Pharmacokinetic analysis in mouse plasma and brain after a single i.p. injection; type: in vivo
Procedure: A pharmacokinetic study was conducted for CID2921524 (MolPort; Riga, LVA) to determine the target experimental time point for the hyperthermia-induced seizure protocol. Male and female wildtype mice (P21-28) received a single intraperitoneal (i.p.) injection of 10 mg/kg CID2921524 in ethanol-Tween 80-saline (1:1:18) with an injection volume of 10 mL/kg. At selected time points, mice were anaesthetized with isoflurane and whole blood was collected via cardiac puncture. Plasma was isolated by centrifugation, whole brain was also collected and samples were stored at -80°C until assayed.
Plasma and brain samples were prepared for analysis of CID2921524 concentrations as previously described. Samples were assayed by LC-MS/MS using a Shimadzu Nexera ultra-HPLD coupled to a Shimadzu 8030 triple quadrupole mass spectrometer (Shimadzu Corp.; Kyoto, JPN) operated in positive electrospray ionization mode with multiple reaction monitoring with 376.3 > 121.1 and 376.2 > 77.0 mass transition pairs. Quantification was achieved by comparing experimental samples to standards prepared with known amounts of drug.
(§1) Normality of each dataset was assessed using the Shapiro-Wilk test. Concentrations of CID2921524 in plasma and brain at each time point were averaged and pharmacokinetic parameters were calculated by noncompartmental analysis as previously described. Seizure threshold temperatures were compared using Mantel-Cox logrank test. Spontaneous seizure data were analysed using two-way ANOVA (seizure frequency and seizure severity), Fisher’s exact test (proportion of mice seizure-free) or Mantel-Cox logrank test (survival). RT-ddPCR data were analysed using two-way ANOVA. All results p < 0.05 were considered statistically significant.

F1.Scn1a+/- mice = assay: Hyperthermia-induced seizures in F1.Scn1a+/- mouse model of Dravet syndrome; type: in vivo; set-up: key to Threshold temperature of individual mice for GTCS induced by hyperthermia: core body temperature in °C at first clonic convulsion
Procedure: Hyperthermia-induced seizure experiments were conducted on male and female F1.Scn1a^+/- and F1.Scn1a^+/-;Gpr55^+/- mice at P14-16 as previously described. Briefly, a RET-3 rectal temperature probe was inserted and mice acclimated for 5 min before mouse core body temperature was elevated 0.5°C every 2 min until the onset of first clonic convulsion with loss of posture or until 42.5°C was reached. For hyperthermia-induced seizure experiments with CID2921524, mice received a single i.p. injection of vehicle or CID2921524 at an injection volume of 10 mL/kg following the 5 min acclimation period.
as §1

[2] = set-up: method as in PMID 28973916; conditions: cited from earlier work
[3] = both sexes, brain, intraperitoneal, wildtype mice P21-28, 10 mg/kg i.p., n = 4, read-out: Brain concentration, average
[4] = both sexes, plasma, intraperitoneal, wildtype mice P21-28, 10 mg/kg i.p., n = 4, read-out: Plasma concentration, average

Row | brain penetrance ([1]; 10 mg/kg i.p.) | total concentration achieved in the brain ([1]; 10 mg/kg i.p., free-fraction unknown) | Kp ([1]; both sexes, brain and plasma, ip, 10 mg/kg i.p., read-out: brain-plasma ratio (total exposure by AUC values)) | concentration at 15 min [1, 3] [ng/g] | concentration at 30 min [1, 3] [ng/g] | concentration at 60 min [1, 3] [ng/g] | concentration at 90 min [1, 3] [ng/g] | concentration at 120 min [1, 3] [ng/g] | concentration at 15 min [1, 4] [ng/mL] | concentration at 30 min [1, 4] [ng/mL] | concentration at 45 min ([1]; both sexes, plasma, intraperitoneal, wildtype mice P21-28, 10 mg/kg i.p., 45 min, n = 4) [ng/mL] | concentration at 60 min [1, 4] [ng/mL] | concentration at 90 min [1, 4] [ng/mL] | concentration at 120 min [1, 4] [ng/mL] | absorption into plasma and brain ([1]; i.p. administration) | half-lives in plasma and brain ([1]; i.p. administration) | Compound | IC50 (GPR55) [nM] | Threshold temperature of individual mice for GTCS induced by hyperthermia (F1.Scn1a+/- mice; F1.Scn1a+/- mice P14-16, male and female, 10 mg/kg i.p. acute, one value per mouse, n = 12, core body temperature (°C), 10 mg/kg, in °C) | effect on a hyperthermia-induced seizure (GTCS temperature threshold) (F1.Scn1a+/- mice; F1.Scn1a+/- mice, 10 mg/kg i.p. vs vehicle, Mantel-Cox logrank) | brain penetrance [2]
1 | brain penetrant | ~ 5 μM | 1.4 | 1820 | 1530 | 1210 | 1310 | 1550 | 1960 | 1420 | 1400 | 1370 | 1020 | 1090 | rapidly absorbed | relatively long half-lives | COc1ccc(CNCCC(c2ccccc2)c2ccc3c(c2)OCO3)cc1 (centres unmarked) [CID2921524] | 965 | 41.2 and 40.3 and 40.2 and 40.8 and 41.5 and 40.7 and 38.9 and 39.9 and 41 and 40.6 and 39.6 | no effect | 
2 |  |  |  |  |  |  |  |  |  |  |  |  |  |  |  |  | CCOc1ccc(N(CC)C(=O)c2nn(-c3ccc(OC)cc3)c(=O)c3c2c2ccccc2n3C)cc1 [CID16020064] |  |  |  | not brain penetrant

— article PMC9879440, “Heterozygous deletion of Gpr55 does not affect a hyperthermia-induced seizure, spontaneous seizures or survival in the Scn1a^+/^- mouse model of Dravet syndrome” (PLOS ONE, 2023)
